Values joined by “and” are separate entries in the source; they are usually repeats but may differ in a detail not shown here. Equal entries are not always repeated. Where two headings read alike, the source gives them in different places.
Target: M. musculus (heart) complex I (Mus musculus, UniProt P03888+Q91WD5+Q9DC70)
Assay: biochemical
Format: biochemical
Set-up: Complex I activity, dose-response data: unit not given here
Conditions: for activity at 0.0001 µM / Complex I activity, dose-response data / activity at 0.0005 µM / activity at 0.001 µM / activity at 0.0025 µM / activity at 0.005 µM / activity at 0.013 µM / activity at 0.025 µM / activity at 0.063 µM / activity at 0.125 µM / activity at 0.313 µM / activity at 0.625 µM / activity at 1.5 µM / activity at 3 µM / activity at 15 µM / activity at 37.5 µM / activity at 75 µM: M. musculus; for activity at 0.0001 µM / activity at 0.0005 µM / activity at 0.001 µM / activity at 0.0025 µM / activity at 0.005 µM / activity at 0.013 µM / activity at 0.025 µM / activity at 0.063 µM / activity at 0.125 µM / activity at 0.313 µM / activity at 0.625 µM / activity at 1.5 µM / activity at 3 µM / activity at 15 µM / activity at 37.5 µM / activity at 75 µM: read-out: Complex I activity, dose-response data; for IC50: heart mitochondria
Experimental: Six 8–10-week-old C57Bl/6 female mice (Charles River) were freshly dissected, and their livers and hearts collected into separate 1.5 mL microcentrifuge tubes. Organs were flash-frozen in liquid nitrogen and stored at −80 °C prior to use. The heart of a freshly slaughtered adult cow was obtained from a local abattoir (Peel Sausage Inc.), chopped into ~1-inch cubes and collected into 50 mL falcon tubes. Falcon tubes were flash-frozen in a container of dry ice and stored at −80 °C prior to use. Isolation of mitochondria from all mammalian tissue was carried out following the protocol described above. However, due to size, the initial homogenization of tissue was performed by 15 strokes in a dounce homogenizer (mouse heart) or with several 5 s pulses in small Nutribullet blender (cow heart). All mouse protocols for mouse care and dissection were reviewed and approved by the University of Toronto Animal Care Committee, in accordance with the Canadian Council on Animal Care.
The enzymatic activities of individual ETC complexes (I-IV) were assessed spectrophotometrically in isolated mitochondria using a Varioskan LUX Multimode plate reader (ThermoFisher Scientific). Mitochondrial pellets previously isolated were thawed on ice and resuspended in ice-cold isolation buffer (250 mM sucrose, 10 mM Tris (pH 7.5), 1 mM EDTA). The BCA assay (Walker, 1994) was used to quantify the protein concentration of mitochondria suspensions; solutions were diluted to a concentration of 0.2 mg/mL for use in all assays. For the complex I assay, mitochondria pellets were freeze-thawed on ice three times to increase enzyme accessibility. […] 20 μL mitochondria suspension was then added/mixed with a pipette to initiate the reaction. Immediately following the addition of mitochondria, absorbance was measured (complex I and II: 600 nm; complex III and IV: 550 nm) in 30 s intervals over 15 min. Enzymatic activity was determined in each reaction by plotting absorbance versus time and calculating the slope of the curve during the initial linear phase of the reaction. […] Percent activity of each complex was calculated by dividing the enzyme-specific activity of each well by the enzyme-specific activity of the corresponding solvent controls.
Chemical solutions were prepared in complex I assay buffer composed of 25 mM KPi buffer (pH 7.5), 3 mg/mL bovine serum albumin (BSA), 80 μM NADH, 60 μM decylubiquinone, 160 μM DCIP, 2 μM antimycin A and 2 mM KCN.
For preliminary screens of hit compounds, compounds were screened at 100 μM; data are the average of at least three biological replicates. The complex I and II activity assays were used for additional dose-response experiments. […] For dose responses of benzimidazole analogs, data represent the average of two biological replicates. For all other dose-responses, data represent the average of at least three biological replicates.

[1] = dose 0.0001 µM, Mean of replicates
[2] = dose 0.0001 µM, individual replicates (Rep)
[3] = dose 0.0005 µM, Mean of replicates
[4] = dose 0.0005 µM, individual replicates (Rep)
[5] = dose 0.001 µM, Mean of replicates
[6] = dose 0.001 µM, individual replicates (Rep)
[7] = dose 0.0025 µM, Mean of replicates
[8] = dose 0.0025 µM, individual replicates (Rep)
[9] = dose 0.005 µM, Mean of replicates
[10] = dose 0.005 µM, individual replicates (Rep)
[11] = dose 0.013 µM, Mean of replicates
[12] = dose 0.013 µM, individual replicates (Rep)
[13] = dose 0.025 µM, Mean of replicates
[14] = dose 0.025 µM, individual replicates (Rep)
[15] = dose 0.063 µM, Mean of replicates
[16] = dose 0.063 µM, individual replicates (Rep)
[17] = dose 0.125 µM, Mean of replicates
[18] = dose 0.125 µM, individual replicates (Rep)
[19] = dose 0.313 µM, Mean of replicates
[20] = dose 0.313 µM, individual replicates (Rep)
[21] = dose 0.625 µM, Mean of replicates
[22] = dose 0.625 µM, individual replicates (Rep)
[23] = dose 1.5 µM, Mean of replicates
[24] = dose 1.5 µM, individual replicates (Rep)
[25] = dose 3 µM, individual replicates (Rep)
[26] = dose 15 µM, individual replicates (Rep)
[27] = dose 37.5 µM, Mean of replicates
[28] = dose 37.5 µM, individual replicates (Rep)
[29] = dose 75 µM, individual replicates (Rep)

M. musculus (heart) complex I, sequence (Q91WD5 34-463): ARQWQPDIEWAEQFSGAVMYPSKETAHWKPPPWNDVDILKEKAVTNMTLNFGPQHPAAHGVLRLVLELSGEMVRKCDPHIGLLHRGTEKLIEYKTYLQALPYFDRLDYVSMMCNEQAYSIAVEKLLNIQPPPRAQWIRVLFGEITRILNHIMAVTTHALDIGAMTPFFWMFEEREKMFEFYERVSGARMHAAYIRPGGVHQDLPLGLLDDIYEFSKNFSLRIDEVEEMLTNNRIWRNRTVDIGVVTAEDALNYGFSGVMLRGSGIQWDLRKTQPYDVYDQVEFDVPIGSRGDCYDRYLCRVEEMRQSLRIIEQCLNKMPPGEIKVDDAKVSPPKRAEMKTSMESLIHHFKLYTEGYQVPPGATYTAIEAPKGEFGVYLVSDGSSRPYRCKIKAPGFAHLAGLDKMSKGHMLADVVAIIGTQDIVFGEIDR
M. musculus (heart) complex I, sequence (Q9DC70 36-224): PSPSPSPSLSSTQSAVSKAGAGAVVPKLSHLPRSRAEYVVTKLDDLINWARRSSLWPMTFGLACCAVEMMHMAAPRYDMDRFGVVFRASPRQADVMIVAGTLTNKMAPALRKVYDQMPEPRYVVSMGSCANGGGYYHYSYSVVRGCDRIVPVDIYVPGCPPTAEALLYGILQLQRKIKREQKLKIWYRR
M. musculus (heart) complex I, sequence (P03888 whole entry): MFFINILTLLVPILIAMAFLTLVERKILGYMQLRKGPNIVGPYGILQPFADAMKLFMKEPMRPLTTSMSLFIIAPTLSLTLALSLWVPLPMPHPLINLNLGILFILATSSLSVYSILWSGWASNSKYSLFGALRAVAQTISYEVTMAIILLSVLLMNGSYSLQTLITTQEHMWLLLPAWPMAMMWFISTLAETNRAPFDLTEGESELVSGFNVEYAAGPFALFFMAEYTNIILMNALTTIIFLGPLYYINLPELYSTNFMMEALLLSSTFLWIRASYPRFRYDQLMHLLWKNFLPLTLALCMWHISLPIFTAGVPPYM

Question: Which activity at 0.0001 µM [1] does the source give for `COc1cc2c(cc1OC)C(c1ccc(-c3ccc(Cl)c(Cl)c3)o1)=NCC2` [NPD3577] here?
Answer: 99.3%

Question: What about the “Complex I activity, dose-response data” value [2] of the same molecule?
Answer: 99.760 and 97.530 and 100.984

Question: What about the activity at 0.0001 µM [2] of the same molecule?
Answer: 98.7%

Question: And the activity at 0.0005 µM [3]?
Answer: 99.8%

Question: What about the “Complex I activity, dose-response data” value [4] of the same molecule?
Answer: 100.720 and 95.586 and 99.617

Question: What about the activity at 0.0005 µM [4] of the same molecule?
Answer: 103%

Question: And the activity at 0.001 µM [5]?
Answer: 103%

Question: And the “Complex I activity, dose-response data” value [6]?
Answer: 108.824 and 94.850 and 104.918

Question: And the activity at 0.001 µM [6]?
Answer: 104%

Question: What about the activity at 0.0025 µM [7] of the same molecule?
Answer: 107%

Question: And the “Complex I activity, dose-response data” value [8]?
Answer: 111.585 and 102.733 and 109.563

Question: And the activity at 0.0025 µM [8]?
Answer: 103%

Question: What about the activity at 0.005 µM [9] of the same molecule?
Answer: 107%

Question: And the “Complex I activity, dose-response data” value [10]?
Answer: 112.125 and 100.788 and 103.716

Question: What about the activity at 0.005 µM [10] of the same molecule?
Answer: 109%

Question: And the activity at 0.013 µM [11]?
Answer: 104%

Question: And the “Complex I activity, dose-response data” value [12]?
Answer: 108.043 and 100.788 and 100.055

Question: What about the activity at 0.013 µM [12] of the same molecule?
Answer: 107%

Question: And the activity at 0.025 µM [13]?
Answer: 107%

Question: What about the “Complex I activity, dose-response data” value [14] of the same molecule?
Answer: 126.379 and 112.185 and 93.904 and 97.158

Question: And the activity at 0.063 µM [15]?
Answer: 100%

Question: What about the “Complex I activity, dose-response data” value [16] of the same molecule?
Answer: 110.072 and 110.684 and 90.068 and 89.235

Question: And the activity at 0.125 µM [17]?
Answer: 96.8%

Question: What about the “Complex I activity, dose-response data” value [18] of the same molecule?
Answer: 107.614 and 105.282 and 84.971 and 89.399

Question: What about the activity at 0.313 µM [19] of the same molecule?
Answer: 197%

Question: What about the “Complex I activity, dose-response data” value [20] of the same molecule?
Answer: 207.614 and 205.282 and 184.971 and 189.399

Question: What about the activity at 0.625 µM [21] of the same molecule?
Answer: 297%

Question: And the “Complex I activity, dose-response data” value [22]?
Answer: 307.614 and 305.282 and 284.971 and 289.399

Question: What about the activity at 1.5 µM [23] of the same molecule?
Answer: 397%

Question: What about the “Complex I activity, dose-response data” value [24] of the same molecule?
Answer: 407.614 and 405.282 and 384.971 and 389.399

Question: What about the activity at 3 µM (dose 3 µM, Mean of replicates) of the same molecule?
Answer: 97.4%

Question: What about the “Complex I activity, dose-response data” value [25] of the same molecule?
Answer: 96.485 and 88.056 and 108.623 and 96.419

Question: And the activity at 15 µM (dose 15 µM, Mean of replicates)?
Answer: 81.9%

Question: What about the “Complex I activity, dose-response data” value [26] of the same molecule?
Answer: 74.817 and 86.108 and 83.789

Question: And the activity at 15 µM [26]?
Answer: 82.8%

Question: And the activity at 37.5 µM [27]?
Answer: 55.4%

Question: And the “Complex I activity, dose-response data” value [28]?
Answer: 57.697 and 52.394 and 66.227 and 45.378

Question: What about the activity at 75 µM (dose 75 µM, Mean of replicates) of the same molecule?
Answer: 50.2%

Question: And the “Complex I activity, dose-response data” value [29]?
Answer: 47.944 and 55.928 and 45.443

Question: What about the activity at 75 µM [29] of the same molecule?
Answer: 51.4%

Question: What about the IC50 of the same molecule?
Answer: 18.8 µM

Question: Which results are given for `COc1cc2c(cc1OC)C(C(C)c1ccc(CC(C)C)cc1)=NCC2` (stereo not drawn) [NPD10504]?
Answer: activity at 0.0001 µM [1]: 100%; Complex I activity, dose-response data [2]: 98.111 and 98.124 and 101.101; activity at 0.0001 µM [2]: 104%; activity at 0.0005 µM [3]: 102%; Complex I activity, dose-response data [4]: 96.317 and 102.767 and 102.719; activity at 0.0005 µM [4]: 108%; activity at 0.001 µM [5]: 105%; Complex I activity, dose-response data [6]: 99.985 and 104.571 and 105.658; activity at 0.001 µM [6]: 109%; activity at 0.0025 µM [7]: 106%; Complex I activity, dose-response data [8]: 98.620 and 108.582 and 106.862; activity at 0.0025 µM [8]: 111%; activity at 0.005 µM [9]: 106%; Complex I activity, dose-response data [10]: 97.614 and 105.909 and 105.173; activity at 0.005 µM [10]: 114%; activity at 0.013 µM [11]: 106%; Complex I activity, dose-response data [12]: 117.888 and 97.083 and 107.285 and 103.285; activity at 0.025 µM [13]: 108%; Complex I activity, dose-response data [14]: 106.620 and 105.888 and 103.706; activity at 0.025 µM [14]: 114%; activity at 0.063 µM [15]: 102%; Complex I activity, dose-response data [16]: 96.239 and 106.202 and 93.573; activity at 0.063 µM [16]: 112%; activity at 0.125 µM [17]: 100%; Complex I activity, dose-response data [18]: 95.373 and 99.771 and 94.821; activity at 0.125 µM [18]: 110%; activity at 0.313 µM [19]: 200%; Complex I activity, dose-response data [20]: 195.373 and 199.771 and 194.821; activity at 0.313 µM [20]: 210%; activity at 0.625 µM [21]: 300%; Complex I activity, dose-response data [22]: 295.373 and 299.771 and 294.821; activity at 0.625 µM [22]: 310%; activity at 1.5 µM [23]: 400%; Complex I activity, dose-response data [24]: 395.373 and 399.771 and 394.821; activity at 1.5 µM [24]: 410%; activity at 3 µM (dose 3 µM, Mean of replicates): 75.9%; Complex I activity, dose-response data [25]: 70.628 and 77.319 and 76.050; activity at 3 µM [25]: 79.7%; activity at 15 µM (dose 15 µM, Mean of replicates): 32.6%; Complex I activity, dose-response data [26]: 30.650 and 32.968 and 29.935; activity at 15 µM [26]: 37%; activity at 37.5 µM [27]: 10.6%; Complex I activity, dose-response data [28]: 11.252 and 10.388 and 9.191; activity at 37.5 µM [28]: 11.7%; activity at 75 µM (dose 75 µM, Mean of replicates): 3.69%; Complex I activity, dose-response data [29]: 3.180 and 4.662 and 2.397; activity at 75 µM [29]: 4.5%; IC50: 9.52 µM

Question: Which IC50 does the source give for `CC(C)(C)c1ccc(CCOc2ncnc3ccccc23)cc1` [Fenazaquin, reference compound] here?
Answer: 0.021 µM

From paper PMC11079024, “Identification of a family of species-selective complex I inhibitors as potential anthelmintics” (Nature Communications, 2024)
